Source: patent US12186740B2, “Kits comprising containers with at least one solid catalytically active compound, and their uses in solid state reaction” (RD&C Research, Development & Consulting GmbH, priority 2018, dated 2025)
Read-outs that look alike come from different tables or passages of the source.

What was measured:
[1] = acidic stressor at 40° C./75% relative humidity for 3 months; cited from earlier work
[2] = KMnO4 on aluminium oxide, dry; process times 60 to 300 minutes
[3] = after 60 minutes process time
[4] = 90 min, no additives
Procedure: As documented in literature clopidogrel bisulphate exists in one amorphous and two polymorphic forms, polymorph II was used for the experiments described. To elucidate the stability and detect changes of the polymorphic form after energy input a simple experimental set-up with the API and no further additives was executed and the polymorphic form was analysed by WAXS (wide-angel X-ray scattering) and DSC (differential scanning calorimetry).
These experiments could be used to evaluate the stability of various polymorphic forms in general, but could also indicate the stability/instability during industrial processing and manufacturing.

[5] = Proof of concept: solid phase oxidation in a ball mill with a solid catalyst; format: physicochemical
Procedure: The first experiment was focused on a simple, well characterized API and other molecules with low structural complexity but with representative functional groups. They were systematically combined with a selection of potentially suitable catalysts. The solid phase reactions were initiated by ball milling for energy transfer in a controlled environment. In a first experimental set-up the oxidation in solid phase systems was analysed including a systematic evaluation of various catalysts, carrier matrices and reaction conditions.
The following analytical methods were implemented. Two solid phase oxidation reactions were prepared. The catalyst used was KMnO4 on silica and the active reaction container was a ball mill.

Row | SMILES | acidic degradation product (RT 15 min) [1] | follow-up or second line degradation products [2] | oxidative degradation products formed [2] | time-dependency of the degradation reaction [2] | quantity of degradation, solid phase conditions vs conventional forced degradation conditions ([3]; based on AUCs in the HPLC method) | acidic degradation product (RT 15 min) ([3]; solid phase set-up, acidic solid phase catalyst) | polymorphic form after milling (DSC profile) ([4]; milling 10 Hz) | polymorphic form after milling (DSC profile) ([4]; milling 25 Hz) | oxidation product(s) formed ([5]; KMnO4 on silica, ball mill) | oxidation product(s) formed ([5]; on aluminium oxide)
1 | COC(=O)[C@H](c1ccccc1Cl)N1CCc2sccc2C1 [clopidogrel bisulphate] | detected | no follow-up or second line degradation products occurred | two oxidative solid phase degradation products | clear time-dependency | comparable amount | could also be detected | minor changes and higher stability | change of the polymorphic form II to the amorphous state | – | –
2 | c1ccc(Sc2ccccc2)cc1 [diphenylsulfide] | – | – | – | – | – | – | – | – | diphenylsulfoxide and diphenylsulfone | solely the higher oxidation state product diphenyl sulfone, but no diphenylsulfoxide
